In the experiment the test system is HCV proteins in Rep5.1 cells (replicon cell line). Kind of experiment: Inhibitory activity of HCV: cell-based ELISA in replicon cell line Rep5.1 (decrease of HCV proteins). Set-up: species or system hepatitis C virus. Conditions: Rep5.1 cells, 72 hours with drug. In a few lines: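 Rep5.1 replicon cells (5000/well, DMEM-10 with 500 μg/ml G418) were given serially diluted drug 4 h after seeding. After 72 h, cells were fixed in methanol/acetone and HCV proteins detected by cell-based ELISA using replicon-specific patient plasma antibodies. IC50 is the concentration giving 50% protein decrease versus the no-drug control.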

The mark [1] stands for this setting: Hepatitis C virus, 72 h, concentration at which 50% of HCV proteins was decreased, Table 2, read-out: IC50.
[2] abbreviates: Hepatitis C virus, 72 h, decrease of HCV proteins measured by HCV antibody, Table 1, read-out: Level (IC50 values classified).
Where [3] appears, read: concentration at which 50% of HCV proteins was decreased, Table 2, read-out: IC50.

In US20060116390A1, “Hepatitis c virus inhibitors” (priority 2003, published 2006) one finds IC50 data, which are given here for 31 molecules.

Like-named read-outs stand apart in the source and are kept apart here.

Turning to `CCc1ccc(COC(=O)C2=C(C)NC(=S)NC2)cc1` [Compound 152, 6-methyl-2-thioxo-1,2,3,4-tetrahydro-pyrimidine-5-carboxylic acid 4-ethyl-benzyl ester], the IC50 runs as follows: under setting [1], 500 nM; under setting [2], less than 1000 nM. Regarding `COc1ccc(COC(=O)C2=C(C)NC(=S)NC2CF)cc1Cl` (stereo not drawn) [82′, 4-fluoromethyl-6-methyl-2-thioxo-1,2,3,4-tetrahydro-pyrimidine-5-carboxylic acid 3-chloro-4-methoxy-benzyl ester], the IC50 reads like this: under setting [1], 2500 nM; under setting [2], 1000 to 10000 nM.

Regarding `CC1=C(C(=O)OCC=Cc2ccsc2)CNC(=S)N1` [Compound 244, 6-methyl-2-thioxo-1,2,3,4-tetrahydro-pyrimidine-5-carboxylic acid 3-thiophen-3-yl-allyl ester], the half-maximal inhibitory concentration (IC50) is 500 nM under setting [1] and less than 1000 nM under setting [2]. Consider `CC1=C(C(=O)OCc2ccc(-c3ccc([N+](=O)[O-])cc3)o2)CNC(=S)N1` [Compound 128, 6-methyl-2-thioxo-1,2,3,4-tetrahydro-pyrimidine-5-carboxylic acid 5-(4-nitro-phenyl)-furan-2-ylmethyl ester], for which the IC50 is 1000 nM under setting [1] and less than 1000 nM under setting [2]. For `COc1ccc(COC(=O)C2=C(C)NC(=S)NC2)cc1C` [Compound 176, 6-methyl-2-thioxo-1,2,3,4-tetrahydro-pyrimidine-5-carboxylic acid 4-methoxy-3-methyl-benzyl ester] the same measures were 2700 nM and 1000 to 10000 nM. For the molecule `COC(=O)C(C)(C)COC(=O)OCC1NC(=S)NC(C)=C1C(=O)OCCc1cccc(Cl)c1` (stereo not drawn) [82″, 4-(2-methoxycarbonyl-2-methyl-propoxycarbonyloxymethyl)-6-methyl-2-thioxo-1,2,3,4-tetrahydro-pyrimidine-5-carboxylic acid 2-(3-chloro-phenyl)-ethyl ester], the IC50 is 800 nM under setting [1] and less than 1000 nM under setting [2]. The corresponding values for `CC1=C(C(=O)OCc2cc3c(C)nn(C)c3s2)CNC(=S)N1` [Compound 223, 6-methyl-2-thioxo-1,2,3,4-tetrahydro-pyrimidine-5-carboxylic acid 1,3-dimethyl-1H-thieno[2,3-c]pyrazol-5-ylmethyl ester] are 6000 nM and 1000 to 10000 nM. The corresponding values for `C=C(Cl)COC(=O)C1=C(C)NC(=S)NC1` [Compound 98, 6-methyl-2-thioxo-1,2,3,4-tetrahydro-pyrimidine-5-carboxylic acid 2-chloro-allyl ester] are 7000 nM and 1000 to 10000 nM.

Take `CC1=C(C(=O)OCCOC2CCc3ccccc32)CNC(=S)N1` (stereo not drawn) [Compound 125, 6-methyl-2-thioxo-1,2,3,4-tetrahydro-pyrimidine-5-carboxylic acid 2-(indan-1-yloxy)-ethyl ester]: the IC50 runs as follows: under setting [1], 2000 nM; under setting [2], 1000 to 10000 nM.

As to `CCOC(=O)OCC1NC(=S)NC(C)=C1C(=O)OCCc1cccc(Cl)c1` (stereo not drawn) [49″, 4-ethoxycarbonyloxymethyl-6-methyl-2-thioxo-1,2,3,4-tetrahydro-pyrimidine-5-carboxylic acid 2-(3-chloro-phenyl)-ethyl ester], the concentration for half-maximal inhibition (IC50) reads like this: under setting [1], 3000 nM; under setting [2], 1000 to 10000 nM. Take `CCC#CCCOC(=O)C1=C(C)NC(=S)NC1` [Compound 157, 6-methyl-2-thioxo-1,2,3,4-tetrahydro-pyrimidine-5-carboxylic acid hex-3-inyl ester]: the half-maximal inhibitory concentration (IC50) under setting [3] is 1000 nM. Still for that read-out and setting: to `C#CCCOC(=O)C1=C(C)NC(=S)NC1` [Compound 129, 6-methyl-2-thioxo-1,2,3,4-tetrahydro-pyrimidine-5-carboxylic acid but-3-inyl ester] belongs greater than 100000 nM. For the molecule `CC1=C(C(=O)OCCCc2ccsc2)C(CF)NC(=S)N1` (stereo not drawn) [53′, 4-fluoromethyl-6-methyl-2-thioxo-1,2,3,4-tetrahydro-pyrimidine-5-carboxylic acid 3-thiophen-3-yl-propyl ester], the concentration for half-maximal inhibition (IC50) is 18000 nM under setting [1] and 10000 to 20000 nM under setting [2].

In the case of `CC(=O)SCCOC(=O)OCC1NC(=S)NC(C)=C1C(=O)OCCc1cccc([N+](=O)[O-])c1` (stereo not drawn) [79″, 4-(2-acetylsulfanyl-ethoxycarbonyloxymethyl)-6-methyl-2-thioxo-1,2,3,4-tetrahydro-pyrimidine-5-carboxylic acid 2-(3-nitro-phenyl)-ethyl ester], the IC50 under setting [1] was found to be 6200 nM and the IC50 under setting [2] lay within 1000 to 10000 nM.

Turning to `CC1=C(C(=O)OCCc2sccc2C)CNC(=S)N1` [Compound 257, 6-methyl-2-thioxo-1,2,3,4-tetrahydro-pyrimidine-5-carboxylic acid 2-(3-methyl-thiophen-2-yl)-ethyl ester], the IC50 is less than 400 nM under setting [1] and less than 1000 nM under setting [2]. For the molecule `O=C(OCCc1ccsc1)C1=CNC(=S)NC1CF` (stereo not drawn) [Compound 271, 4-fluoromethyl-2-thioxo-1,2,3,4-tetrahydro-pyrimidine-5-carboxylic acid 2-thiophen-3-yl-ethyl ester], the concentration for half-maximal inhibition (IC50) reads like this: under setting [1], 9000 nM; under setting [2], 1000 to 10000 nM. With `CC1=C(C(=O)SCCc2ccccc2)C(CF)NC(=S)N1` (stereo not drawn) [88′, 4-fluoromethyl-6-methyl-2-thioxo-1,2,3,4-tetrahydro-pyrimidine-5-carbothioic acid S-phenethyl ester], the IC50 reads like this: under setting [1], 400 nM; under setting [2], less than 1000 nM. For the molecule `CC1=C(C(=O)OCCc2ccsc2Br)C(CF)NC(=S)N1` (stereo not drawn) [Compound 268, 4-fluoromethyl-6-methyl-2-thioxo-1,2,3,4-tetrahydro-pyrimidine-5-carboxylic acid 2-(2-bromo-thiophen-3-yl)-ethyl ester], the IC50 was 1000 nM under setting [1] and 1000 to 10000 nM under setting [2]. The corresponding values for `CC1=C(C(=O)OCc2cc(Cl)ccc2[N+](=O)[O-])CNC(=S)N1` [Compound 143, 6-methyl-2-thioxo-1,2,3,4-tetrahydro-pyrimidine-5-carboxylic acid 5-chloro-2-nitro-benzyl ester] are 400 nM and less than 1000 nM.

Regarding `CC1=C(C(=O)OCC(F)(F)c2ccsc2)CNC(=S)N1` [71′, 6-methyl-2-thioxo-1,2,3,4-tetrahydro-pyrimidine-5-carboxylic acid 2,2-difluoro-2-thiophen-3-yl-ethyl ester], the half-inhibitory concentration (IC50) is, setting by setting: under setting [1], 600 nM; under setting [2], less than 1000 nM. The corresponding values for `CC1=C(C(=O)OCCc2ccsc2)C(c2ccccc2)NC(=S)N1` (stereo not drawn) [4′, 6-methyl-4-phenyl-2-thioxo-1,2,3,4-tetrahydro-pyrimidine-5-carboxylic acid 2-thiophen-3-yl-ethyl ester] are 51000 nM and greater than 20000 nM. With `CC1=C(C(=O)OCC2(c3ccc(Cl)cc3)CC2)C(CO)NC(=S)N1` (stereo not drawn) [52″, 4-hydroxymethyl-6-methyl-2-thioxo-1,2,3,4-tetrahydro-pyrimidine-5-carboxylic acid 1-(4-chloro-phenyl)-cyclopropylmethyl ester], the IC50 was 10000 nM under setting [1] and 1000 to 10000 nM under setting [2]. For `CC1=C(C(=O)OCCCCCC(=O)O)CNC(=S)N1` [18′, 6-methyl-2-thioxo-1,2,3,4-tetrahydro-pyrimidine-5-carboxylic acid 5-carboxy-pentyl ester] the same measures were greater than 100000 nM and greater than 20000 nM. With `COc1cscc1CCOC(=O)C1=C(C)NC(=S)NC1` [40′, 6-methyl-2-thioxo-1,2,3,4-tetrahydro-pyrimidine-5-carboxylic acid 2-(4-methoxy-thiophen-3-yl)-ethyl ester], the concentration for half-maximal inhibition (IC50) runs as follows: under setting [1], 600 nM; under setting [2], less than 1000 nM.

In the case of `CC1=C(C(=O)OCCc2cccc(C)c2)C(CO)NC(=S)N1` (stereo not drawn) [64″, 4-hydroxymethyl-6-methyl-2-thioxo-1,2,3,4-tetrahydro-pyrimidine-5-carboxylic acid 2-m-tolyl-ethyl ester], the 50% inhibitory concentration (IC50) is, setting by setting: under setting [1], 5500 nM; under setting [2], 1000 to 10000 nM.

As to `CCOC(=O)CCCCCOC(=O)C1=C(C)NC(=S)NC1` [Compound 197, 6-methyl-2-thioxo-1,2,3,4-tetrahydro-pyrimidine-5-carboxylic acid 5-ethoxycarbonyl-pentyl ester], the IC50 by setting is: under setting [1], greater than 100000 nM; under setting [2], greater than 20000 nM. For `COC(=O)C1=C(C(=O)OCc2ccccc2)CNC(=S)N1` [Compound 196, 2-thioxo-1,2,3,6-tetrahydro-pyrimidine-4,5-dicarboxylic acid 5-benzyl ester 4-methyl ester] the same measures were 43000 nM and greater than 20000 nM. The corresponding values for `CCCOc1ccc(COC(=O)C2=C(C)NC(=S)NC2)cc1` [Compound 78, 6-methyl-2-thioxo-1,2,3,4-tetrahydro-pyrimidine-5-carboxylic acid 4-propoxy-benzyl ester] are 1000 nM and less than 1000 nM. For `CC1=C(C(=O)OCCc2ccc(C)cc2)C(CO)NC(=S)N1` (stereo not drawn) [63″, 4-hydroxymethyl-6-methyl-2-thioxo-1,2,3,4-tetrahydro-pyrimidine-5-carboxylic acid 2-p-tolyl-ethyl ester] the same measures were 1600 nM and 1000 to 10000 nM. Turning to `CC1=C(C(=O)OCCc2cccc([N+](=O)[O-])c2)C(CO)NC(=S)N1` (stereo not drawn) [32″, 4-hydroxymethyl-6-methyl-2-thioxo-1,2,3,4-tetrahydro-pyrimidine-5-carboxylic acid 2-(3-nitro-phenyl)-ethyl ester], the IC50 is, setting by setting: under setting [1], 6000 nM; under setting [2], 1000 to 10000 nM. The corresponding values for `CC1=C(C(=O)OCCc2ccc(F)c(F)c2)C(CO)NC(=S)N1` (stereo not drawn) [68″, 4-hydroxymethyl-6-methyl-2-thioxo-1,2,3,4-tetrahydro-pyrimidine-5-carboxylic acid 2-(3,4-difluoro-phenyl)-ethyl ester] are 2700 nM and 1000 to 10000 nM.
